According to PubChem BioAssay (NCI):
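Step 1: Grow cells in 96-well plates. Step 2: Expose to compound for 48 hours at 5 concentrations. Step 3: Interpolate endpoints linearly; if unreached, use highest concentration. TGI: concentration producing complete growth inhibition.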

What follows are molecules tested on NCI-H226 lung (assay: growth of human tumour cells (NCI), 48 h).

Structure (SMILES)	TGI
C[N+](CCCl)(CCCl)Cc1cccc2cccc([N+](=O)[O-])c12	> 100 µM
O=C1NC(=O)C(c2c[nH]c3ccccc23)=C1c1cnc[nH]1	9.4 µM
Cc1c([N+](=O)[O-])ccc2c(NCCCN(C)C)ccnc12	72.5 µM
Cc1cc(C)nc(NC(=O)c2ccc(Br)s2)c1	> 100 µM
N#Cc1nc2ccccc2nc1N1CCN(c2ccc([N+](=O)[O-])cc2)CC1	> 100 µM
CN1CCN(C(=O)CCNC(=O)Cc2ccc(C(=O)c3ccccc3)cc2)CC1	> 100 µM
COc1cc(OC)c(-c2ccc(OCc3ccccc3)c3c(OC)cc(C)cc23)c2c1C(C)=N[C@H](C)C2	5.52 µM
COc1ccc(N2C(=O)C(=O)N(c3ccccc3[N+](=O)[O-])C2=S)cc1	> 100 µM
O=C(O)CC1NC(/C(=C/c2ccccc2)NC(=O)c2ccccc2)OC1=O (stereo not drawn)	98.6 µM
Nc1c2c(nc3cc(F)c(F)cc13)CCC2	> 100 µM
COc1ccccc1/C(=N\OCCC(=O)O)c1cccs1	> 100 µM
CC(C)(Br)C(Br)CCC1(C2CO2)CO1 (stereo not drawn)	> 5 µM
CCCn1c2ccccc2c2ccc3c(c21)C(=O)C=CC3=O	> 10 µM
CC1(c2cccs2)CC(c2cccs2)=C(C#N)C(=C(C#N)C#N)N1 (stereo not drawn)	90 µM
O=C1C2CC=CCC2C(=O)N1n1c(Cc2ccc(Cl)cc2)n[nH]c1=O (stereo not drawn)	> 100 µM
CCN(CC)CCC(=O)/C=C/c1ccccc1	44.9 µM
Oc1c(C2=NNC(c3ccc(Cl)cc3Cl)C2)ccc2ccccc12 (stereo not drawn)	> 100 µM

Each molecule was assayed on HOP-92 NSCLC (assay: growth of human tumour cells (NCI), 48 h).

Structure (SMILES)	TGI
OC1[C@@H]2[C@@H](O)[C@H](O)[C@@H](O)N2C[C@@H]1O (stereo partly drawn)	> 100 µM
C=C1C(=O)C[C@H]2C(=C)C(=O)O[C@@H]2C2C1CC[C@@]2(C)O (stereo partly drawn)	> 100 µM
COC(=O)C1=C(C)NC2=C(C(=O)c3ccccc32)C1c1cn(-c2ccccc2)nc1-c1ccccc1 (stereo not drawn)	> 100 µM
OCC1OC(c2cccc3cc(O)c(O)cc23)CC1O (stereo not drawn)	> 100 µM
CC(C)(Cl)C(Br)CCC(C)(Cl)C(Br)CBr (stereo not drawn)	46 µM
O=C(NCC(=O)N1CCCC1C(=O)OC(=O)C1CCCN1C(=O)CNC(=O)OCc1ccccc1)OCc1ccccc1 (stereo not drawn)	> 100 µM
CN(Cc1cnc2nc(N)nc(N)c2n1)c1ccc(C(=O)NC(CCC(=O)NCCC(P(=O)(O)O)P(=O)(O)O)C(=O)O)cc1 (stereo not drawn)	> 100 µM
O=C1NC(NNc2ccccc2)=N/C1=C\c1ccccc1O	> 100 µM
C[N+](CCCl)(CCCl)Cc1cccc2cccc([N+](=O)[O-])c12	> 100 µM
O=C1NC(=O)C(c2c[nH]c3ccccc23)=C1c1cnc[nH]1	> 100 µM
Cc1c([N+](=O)[O-])ccc2c(NCCCN(C)C)ccnc12	61.5 µM
Cc1cc(C)nc(NC(=O)c2ccc(Br)s2)c1	> 100 µM
N#Cc1nc2ccccc2nc1N1CCN(c2ccc([N+](=O)[O-])cc2)CC1	> 100 µM
CN1CCN(C(=O)CCNC(=O)Cc2ccc(C(=O)c3ccccc3)cc2)CC1	> 100 µM
COc1cc(OC)c(-c2ccc(OCc3ccccc3)c3c(OC)cc(C)cc23)c2c1C(C)=N[C@H](C)C2	3.35 µM
COc1ccc(N2C(=O)C(=O)N(c3ccccc3[N+](=O)[O-])C2=S)cc1	57.4 µM
O=C(O)CC1NC(/C(=C/c2ccccc2)NC(=O)c2ccccc2)OC1=O (stereo not drawn)	> 100 µM
Nc1c2c(nc3cc(F)c(F)cc13)CCC2	> 100 µM
COc1ccccc1/C(=N\OCCC(=O)O)c1cccs1	> 100 µM
CC(C)(Br)C(Br)CCC1(C2CO2)CO1 (stereo not drawn)	> 5 µM
CCCn1c2ccccc2c2ccc3c(c21)C(=O)C=CC3=O	3.8 µM
CC1(c2cccs2)CC(c2cccs2)=C(C#N)C(=C(C#N)C#N)N1 (stereo not drawn)	30.8 µM
O=C1C2CC=CCC2C(=O)N1n1c(Cc2ccc(Cl)cc2)n[nH]c1=O (stereo not drawn)	> 100 µM
CCN(CC)CCC(=O)/C=C/c1ccccc1	28.7 µM
Oc1c(C2=NNC(c3ccc(Cl)cc3Cl)C2)ccc2ccccc12 (stereo not drawn)	> 100 µM

These molecules were tested on OVCAR-3 ovarian (assay: growth of human tumour cells (NCI), 48 h).

Structure (SMILES)	TGI
OC1[C@@H]2[C@@H](O)[C@H](O)[C@@H](O)N2C[C@@H]1O (stereo partly drawn)	> 100 µM
C=C1C(=O)C[C@H]2C(=C)C(=O)O[C@@H]2C2C1CC[C@@]2(C)O (stereo partly drawn)	35.8 µM
COC(=O)C1=C(C)NC2=C(C(=O)c3ccccc32)C1c1cn(-c2ccccc2)nc1-c1ccccc1 (stereo not drawn)	> 100 µM
OCC1OC(c2cccc3cc(O)c(O)cc23)CC1O (stereo not drawn)	> 100 µM
CC(C)(Cl)C(Br)CCC(C)(Cl)C(Br)CBr (stereo not drawn)	41.9 µM
O=C(NCC(=O)N1CCCC1C(=O)OC(=O)C1CCCN1C(=O)CNC(=O)OCc1ccccc1)OCc1ccccc1 (stereo not drawn)	> 100 µM
CN(Cc1cnc2nc(N)nc(N)c2n1)c1ccc(C(=O)NC(CCC(=O)NCCC(P(=O)(O)O)P(=O)(O)O)C(=O)O)cc1 (stereo not drawn)	> 100 µM
O=C1NC(NNc2ccccc2)=N/C1=C\c1ccccc1O	> 100 µM
C[N+](CCCl)(CCCl)Cc1cccc2cccc([N+](=O)[O-])c12	> 100 µM
O=C1NC(=O)C(c2c[nH]c3ccccc23)=C1c1cnc[nH]1	> 100 µM
Cc1c([N+](=O)[O-])ccc2c(NCCCN(C)C)ccnc12	50.8 µM
Cc1cc(C)nc(NC(=O)c2ccc(Br)s2)c1	> 100 µM
CN1CCN(C(=O)CCNC(=O)Cc2ccc(C(=O)c3ccccc3)cc2)CC1	> 100 µM
COc1cc(OC)c(-c2ccc(OCc3ccccc3)c3c(OC)cc(C)cc23)c2c1C(C)=N[C@H](C)C2	4.08 µM
O=C(O)CC1NC(/C(=C/c2ccccc2)NC(=O)c2ccccc2)OC1=O (stereo not drawn)	51.2 µM
Nc1c2c(nc3cc(F)c(F)cc13)CCC2	> 100 µM
